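Cultured in 96-well plates, cells were exposed to test compound for 48 hours across five concentrations. GI50 marks 50% less growth.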 Active and inactive are the calls of the source. No stated cut-off is given here; in the data, active = GI50 up to about 1.1 µM and inactive = higher.
Tests used:
Experiment in all cases: NCI-60 cell line screen, 48 h
OVCAR-5 = system: OVCAR-5
ACHN = system: ACHN
OVCAR-4 = system: OVCAR-4
RXF 393 = system: RXF 393
NCI-H460 = system: NCI-H460
CAKI-1 = system: CAKI-1
COLO 205 = system: COLO 205
SNB-19 = system: SNB-19
OVCAR-8 = system: OVCAR-8
SF-268 = system: SF-268
HL-60 = system: HL-60
A498 = system: A498
OVCAR-3 = system: OVCAR-3
M14 = system: M14
HCC 2998 = system: HCC 2998
SNB-75 = system: SNB-75
MDA-MB-435 = system: MDA-MB-435
PC-3 = system: PC-3
NCI/ADR-RES = system: NCI/ADR-RES

Measured: GI50

Nn1c(S)nnc1N/N=C1/C(=O)Nc2ccccc21
inactive: OVCAR-5 > 100 µM | ACHN 83.8 µM | OVCAR-4 42.1 µM | RXF 393 27.7 µM | NCI-H460 54.7 µM | CAKI-1 52.6 µM | COLO 205 > 100 µM | SNB-19 55.2 µM | OVCAR-8 49.5 µM | SF-268 56 µM | HL-60 94.4 µM | A498 92.3 µM | OVCAR-3 80.4 µM | M14 62.1 µM | HCC 2998 > 100 µM

C=CC/N=C1\NC(=O)C(CC(=O)Nc2ccc(C)cc2)S1 (stereo unspecified)
inactive: OVCAR-5 > 100 µM | ACHN > 100 µM | OVCAR-4 > 100 µM | RXF 393 > 100 µM | NCI-H460 > 100 µM | CAKI-1 > 100 µM | COLO 205 > 100 µM | SNB-19 > 100 µM | OVCAR-8 > 100 µM | SF-268 > 100 µM | HL-60 > 100 µM | SNB-75 > 100 µM | A498 > 100 µM | OVCAR-3 > 100 µM | M14 > 100 µM | HCC 2998 > 100 µM

COc1cccc(OC)c1NC(=O)C(=O)Nn1c(NNC(=O)c2ccncc2)nc2ccccc2c1=O
inactive: OVCAR-5 > 100 µM | ACHN > 100 µM | OVCAR-4 > 100 µM | MDA-MB-435 > 100 µM | RXF 393 > 100 µM | PC-3 > 100 µM | NCI-H460 > 100 µM | CAKI-1 > 100 µM | NCI/ADR-RES > 100 µM | SNB-19 > 100 µM | OVCAR-8 > 100 µM | SF-268 > 100 µM | HL-60 > 100 µM | SNB-75 > 100 µM | A498 > 100 µM | OVCAR-3 > 100 µM | M14 > 100 µM | HCC 2998 > 100 µM

CCc1ccc(Nc2ccc([N+](=O)[O-])cc2[N+](=O)[O-])cc1
inactive: OVCAR-5 > 100 µM | ACHN > 100 µM | OVCAR-4 34.5 µM | RXF 393 71.4 µM | NCI-H460 69.2 µM | CAKI-1 39.1 µM | OVCAR-8 97.7 µM | HL-60 26.8 µM | SNB-75 39.7 µM | A498 23.7 µM | OVCAR-3 44.4 µM | M14 > 100 µM | HCC 2998 > 100 µM

COC(=O)c1cc2cc(OC)c(OC)cc2cc(C(=O)OC)c1=O
inactive: OVCAR-5 > 100 µM | ACHN > 100 µM | OVCAR-4 > 100 µM | RXF 393 > 100 µM | NCI-H460 > 100 µM | CAKI-1 > 100 µM | COLO 205 > 100 µM | SNB-19 > 100 µM | OVCAR-8 > 100 µM | SF-268 > 100 µM | HL-60 > 100 µM | SNB-75 > 100 µM | A498 > 100 µM | OVCAR-3 > 100 µM | M14 > 100 µM | HCC 2998 > 100 µM

CC(C)(C)OC(=O)NC(CCCCNC(=O)OCc1ccccc1)C(=O)NC(CCCCNC(=O)OCc1ccccc1)C(=O)ON1C(=O)CCC1=O (stereo unspecified)
inactive: OVCAR-5 > 100 µM | RXF 393 > 100 µM | PC-3 > 100 µM | COLO 205 > 100 µM | SNB-19 > 100 µM | OVCAR-8 > 100 µM | HL-60 > 100 µM | SNB-75 > 100 µM | M14 > 100 µM | HCC 2998 > 100 µM

CCOC(=O)C1=C(N2CCCC2)C(=O)C(C(=O)OCC)C1 (stereo unspecified)
inactive: OVCAR-5 > 100 µM | ACHN > 100 µM | OVCAR-4 > 100 µM | MDA-MB-435 > 100 µM | RXF 393 > 100 µM | PC-3 > 100 µM | NCI-H460 > 100 µM | CAKI-1 > 100 µM | NCI/ADR-RES > 100 µM | COLO 205 > 100 µM | SNB-19 > 100 µM | OVCAR-8 > 100 µM | SF-268 > 100 µM | SNB-75 > 100 µM | A498 > 100 µM | OVCAR-3 > 100 µM | M14 > 100 µM | HCC 2998 > 100 µM

CC(=O)O[C@H]1CCC2[C@@H]3CCC4c5nonc5CC[C@]4(C)C3CC[C@@]21C (stereo partly specified)
inactive: OVCAR-5 > 10 µM | ACHN 88.7 µM | OVCAR-4 > 10 µM | RXF 393 > 10 µM | NCI-H460 > 10 µM | CAKI-1 > 10 µM | COLO 205 > 10 µM | SNB-19 > 10 µM | OVCAR-8 > 10 µM | SF-268 > 10 µM | HL-60 > 10 µM | SNB-75 51.3 µM | A498 > 10 µM | M14 > 10 µM | HCC 2998 > 10 µM
